Test system: ruminal epithelium
Experiment: Ussing chamber: transepithelial current and conductance
Type: cell-based
Details: sheep ruminal epithelium, mucosal addition, short-circuit mode, 37° C.
Source text: All sheep were slaughtered in accordance with German laws for the protection of animals. Removal of tissue occurred directly after death, was stripped and transported to the laboratory in a warm and gassed transport buffer.
The tissue was mounted into conventional Ussing chambers with an exposure area of 3.14 cm^2 (as described in (Martens and Gabel, 1988, Transport of Na and Cl across the epithelium of ruminant forestomachs: rumen and omasum. A review. Comparative Biochemistry and Physiology Part A: Physiology 90, 569-575)). The chambers contained 16 ml of mucosal and serosal buffer, which was circulated with a gas lift system and warmed to 37° C. with a water jacket.
After ten minutes the chambers were clamped to short circuit mode (Mussler Scientific Instruments, Aachen, Germany). Transepithelial current (Isc) and conductance (Gt) were measured continuously.
After an equilibration time of about 30 min under short-circuit conditions, the Ussing chambers were divided into two groups, depending on the transepithelial conductance of the tissues inside the chambers. Group 1 (TRP-group) and Group 2 (TRP-PG-group.)
Depending on the group 4.8 μl of TRP agonist combined with propylene glycol or 2.4 mg of TRP Agonist was added to the mucosal side of the tissues. Transepithelial current (Isc) and transepithelial conductance (Gt) were measured continuously. […]

`CC1CCC(C(C)C)C(O)C1` (centres unmarked) [TRP (menthol), menthol] was tested, and the “Transepithelial conductance (Gt), maximum increase after addition, mean” value was “+0.563” and the “Transepithelial current (Isc), maximum increase after addition, mean” value was “+0.727”.

Source: US20210127709A1, “FEED ADDITIVE COMPRISING A TRP MODULATOR” (PerformaNat GmbH, priority 2018, published 2021)
